Converted amounts (≈) assume the structure as drawn. Structures can show the parent of a compound that is named as a salt. Where two headings read alike, the source gives them in different places.
Key:
[1] = Ferric-reducing antioxidant power (FRAP) assay
Procedure: The FRAP assay was used to evaluate antioxidant activity based on the ability of the sample to reduce Fe^3+-TPTZ (2,4,6-tris(2-pyridyl)-S-triazine) to Fe^2+-TPTZ (Benzie and Strain [1996]). This reduction results in a color change from colorless to blue. The absorbance was measured at 593 nm using a Microplate Reader (BioTek ELx800 Instruments Inc. Winooski, Vermont, USA) with the Gen 5 software for FRAP value calculations. A ferrous sulfate heptahydrate (FeSO4 · 7H2O) (Cat. No. 215422, Sigma-Aldrich, USA) standard curve, ranging from 1000 µM to 50 µM, was prepared for the assay. The FRAP reagent consists of 300 mM sodium acetate buffer (pH 3.6) (Cat. No. 90358, Sigma-Aldrich, USA), 10 mM TPTZ solution (Cat. No. T1253, Sigma-Aldrich, USA), and 20 mM ferric (III) chloride hexahydrate (FeCl3 · 6H2O) (Cat. No. 236489, Sigma-Aldrich, USA) in a 10:1:1 ratio, respectively, and heated to 37 °C for ten minutes before use. A blank was measured at 593 nm with 150 µL FRAP reagent added to each well of a 96-well microtiter plate. Samples (20 µL of each sample) (1, 0.5, 0.25 mg/mL) and ascorbic acid (Sigma-Aldrich, Cat. No. A4403) positive control (1 mg/mL) were added in triplicates. Reducing capacity was expressed by FRAP values in an µM FeSO4/µg sample unit.

[2] = test system: LPS-induced nitric oxide (NO) production in RAW 264.7 cells; assay: Inhibition of NO generation in LPS-induced RAW 264.7 cells (Griess); format: cell-based, murine; settings: RAW 264.7 cells
Procedure: The nitrite concentration in the culture medium was measured to indicate nitric oxide (NO) production as previously described (Min et al. [2009]). The murine macrophage RAW 264.7 cell line was obtained from ATCC, Manassas, VA, USA, and maintained in Dulbecco’s modified Eagle’s medium supplemented with 10% heat-inactivated FBS (Cat. No. A5670801, Gibco BRL Co, Grand Island, NY, USA), penicillin G (100 units/mL) (Cat. No. P7794, Sigma-Aldrich, USA), streptomycin (100 µg/mL) (Cat. No. S9137, Sigma-Aldrich, USA), and L-glutamine (2 mM) (Cat. No. 25030081, Gibco BRL Co, Grand Island, NY, USA). In brief, RAW 264.7 cells were seeded at a density of 4 × 10^4 cells/well in phenol red-free media (Cat. No. 11835030, Gibco, USA) in a 96-well plate, and incubated in a humidified incubator with 5% CO2 at 37 °C for 24 hr. […] The concentration of nitric oxide production was assessed using the Griess reagent, which consists of a 1:1 (v/v) mixture of 1% sulfanilamide (Cat No. A13001, Alfa Aesar, Massachusetts, USA) in H3PO4 and N-(1-naphthyl)ethylenediamine dihydrochloride (Cat. No. 102397, MP Biomedicals, USA). Absorbance was recorded with a microplate reader (SynergyMx, BioTeK, Winooski, VT, USA) at 540 nm. A standard curve was created using sodium nitrite (1–100 μM) (Cat. No. 44227, Alfa Aesar, Massachusetts, USA). A sulforhodamine B (SRB) assay was employed to assess the cellular viability of the samples with RAW 264.7 cells under a similar experimental setup. The final % inhibition of NO production was adjusted based on cell viability.

MSSA LUU7 = assay: Antibacterial MIC, broth microdilution with resazurin; format: cell-based; settings: Staphylococcus aureus
Description: (§1) Methicillin-resistant Staphylococcus aureus (MRSA), methicillin-susceptible S. aureus (MSSA), and Gram-negative clinical isolates of bacteria [Escherichia coli (9637) and Serratia marcescens ATCC 13880] were used for this study. […] MSSA HBP10, MSSA LUU7, MSSA R113, S. aureus ONE9, and MSSA POB2 were isolated in Hawaiʻi (Gerken et al. [2021]). Mueller Hinton Broth (MHB, GTIN:00382902979630, Becton, Dickinson and Company, Franklin Lakes, NJ, USA) and Mueller Hinton Agar (MHA, GTIN:00382902252504, Becton, Dickinson and Company, Franklin Lakes, NJ, USA,) were used for bacterial inoculation. MRSA was a pathogen strain causing hospital-acquired infections in 1982. This strain easily acquires resistance to antibiotics, such as vancomycin. MSSA strains isolated from the Island of Hawaiʻi included: Honolʻii Beach Park (HBP10) carry the genes erm(C), aph(3′)-III, and mecA, which provide resistance to macrolide, aminoglycoside, and beta-lactam antibiotics, respectively; Wailuku River (LUU7) which contains the blaZ gene (beta-lactam resistance) (Gerken et al. [2021]). Richardson’s Beach Park (R113) and Onekahakaha (ONE9) which is known for its virulence factors (hlgA, hlgB, hlgC, lukD, and lukE).
(§2) The minimum inhibitory concentrations (MICs) were determined using a two-fold serial dilution method with MHB following the recommendations of the Clinical and Laboratory Standards Institute (CLSI [2012]; Elshikh et al. [2016]). In brief, serial two-fold dilutions of the samples in DMSO were mixed with MHB in a 96-well microplate. Then, 50 µL of bacteria suspension was added to each well, resulting in a final concentration of 1 × 10^4 colony-forming units/well. The plates were incubated at 35–37 °C for 18–24 hr. After incubation, 10 µL of 0.18% resazurin (Cat. No. R7017, Sigma-Aldrich, USA) was added to each well (Elshikh et al. [2016]). The MIC was assessed within 2–3 hr after the addition of resazurin. All antimicrobial assays were performed in triplicate, using vancomycin (Cat. No. SBR00001, Sigma-Aldrich, USA) and gentamicin (Cat. No. G1397, Sigma-Aldrich, USA) as standard controls.

E. coli = assay: as above; format: cell-based; settings: Escherichia coli, Gram-negative
Description: as §1, §2

S. aureus 8325-4 = assay: as above; format: cell-based; settings: Staphylococcus aureus, 83254
Description: as §1, §2

MRSA USA300 = assay: as above; format: cell-based; settings: Staphylococcus aureus
Description: as §1, §2

S. aureus ONE9 = assay: as above; format: cell-based; settings: Staphylococcus aureus
Description: as §1, §2

MSSA R113 = assay: as above; format: cell-based; settings: Staphylococcus aureus
Description: as §1, §2

S. marcescent = assay: as above; format: cell-based, Serratia marcescens; settings: Gram-negative
Description: as §1, §2

[3] = test system: A549 human lung carcinoma epithelial cells; assay: SRB cytotoxicity assay, A549 cells; settings: SRB assay; for cytotoxic response against A549 cells (in words): 72 h, highest concentration tested 100 µg/ml
Procedure: After incubation, cells were fixed with trichloroacetic acid (Cat. No. T4885, Sigma-Aldrich, USA), stained with SRB (Cat. No. S9012, Sigma-Aldrich, USA), and the absorbance was measured at 515 nm. Percent cell death was calculated using the following equation: % Cell death=(ODc−OD0)‐(ODs−OD0)/(ODc−OD0)×100
OD0 = Optical density of cells before treatment (baseline reading).
ODC = Optical density of untreated control cells after 72 h.
ODS = Optical density of cells treated with the test sample after 72 h.
Non-linear regression analysis was performed using GraphPad Prism to calculate the IC50 value. This value reflects the concentration needed to inhibit cell growth by 50%.
All data are presented as mean ± standard error of the mean (SEM) and were collected from three separate experiments. Statistical analyses were conducted using Student’s t-test or ANOVA, followed by Tukey’s multiple comparisons test. Significance is indicated by *p < 0.05, **p < 0.01, and ***p < 0.001.

S. aureus CART817 = assay: Antibacterial MIC, broth microdilution with resazurin; format: cell-based; settings: Staphylococcus aureus
Procedure: as §2

MRSA HBP10 = assay: as above; format: cell-based, Staphylococcus aureus
Description: as §1, §2

MRSA POB2 = assay: as above; format: cell-based, Staphylococcus aureus
Description: as §1, §2

S. aureus NEWMAN = assay: as above; format: cell-based, Staphylococcus aureus; settings: Staphylococcus aureus
Description: as §1, §2

[4] = Serratia marcescens, read-out: MIC

O=C1O[C@H]([C@@H](O)CO)C(O)=C1O [Ascorbic acid, ascorbic acid, reference compound]
FRAP ([1]; FeSO4 standard curve): 2847.40 µM | FRAP ([1]; µM FeSO4/µg sample): 35.59 ± 0.09 µM/µg | FRAP ([1]; µM FeSO4/µg sample, listed as ascorbic acid): 35.59 µM/µg

Nc1ncnc2c1ncn2[C@H]1C[C@H](O)[C@@H](CO)O1 [Compound 2, deoxyadenosine]
NO inhibitory activity (in words) ([2]; LPS-induced, highest concentration 50 μg/mL): no significant NO inhibitory activity | MIC (MSSA LUU7; MSSA LUU7, Gram-positive, read-out: MIC): 128 µg/mL (≈ 509 µM) | MIC (E. coli): 128 µg/mL (≈ 509 µM) | MIC (S. aureus 8325-4; S. aureus 8325-4, Gram-positive, read-out: MIC): 128 µg/mL (≈ 509 µM) | MIC (MRSA USA300; MRSA USA300, Gram-positive, read-out: MIC): 128 µg/mL (≈ 509 µM) | MIC (S. aureus ONE9; S. aureus ONE9, Gram-positive, read-out: MIC): 128 µg/mL (≈ 509 µM) | MIC (MSSA R113; MSSA R113, Gram-positive, read-out: MIC): 128 µg/mL (≈ 509 µM) | MIC (S. marcescent; [4]): 64 µg/mL (≈ 255 µM) | cytotoxic response against A549 cells (in words) [3]: no cytotoxic response | MIC (S. aureus CART817; S. aureus CART817, Gram-positive, read-out: MIC): 128 µg/mL (≈ 509 µM) | MIC (MRSA HBP10; Staphylococcus aureus, MRSA HBP10, Gram-positive, read-out: MIC): 128 µg/mL (≈ 509 µM) | MIC (MRSA POB2; Staphylococcus aureus, MRSA POB2, Gram-positive, read-out: MIC): 128 µg/mL (≈ 509 µM) | MIC (S. aureus NEWMAN; S. aureus NEWMAN, Gram-positive, read-out: MIC): 128 µg/mL (≈ 509 µM)

CCCCCCCCCCCCCCCC(C)=O [Compound 4, 2-heptadecanone]
MIC (S. marcescent): Inactive | MIC (MRSA HBP10; MRSA HBP10, Gram-positive): Inactive | MIC (MRSA POB2; MRSA POB2, Gram-positive): Inactive

CCCCCCCCCCCCCCCC(=O)O [Compound 5, palmitic acid]
FRAP ([1]; FeSO4 standard curve): 88.06 µM | FRAP ([1]; µM FeSO4/µg sample): 1.10 ± 0.02 µM/µg | MIC (S. marcescent): Inactive | cytotoxic response against A549 cells (in words) [3]: inactive | MIC (MRSA HBP10; MRSA HBP10, Gram-positive): Inactive | MIC (MRSA POB2; MRSA POB2, Gram-positive): Inactive

CCCCCCCCCCCCCCCC(=O)OC [Compound 6, methyl palmitate]
FRAP ([1]; FeSO4 standard curve): 499.40 µM | FRAP ([1]; µM FeSO4/µg sample): 6.24 ± 0.07 µM/µg | MIC (S. marcescent): Inactive | MIC (MRSA HBP10; MRSA HBP10, Gram-positive): Inactive | MIC (MRSA POB2; MRSA POB2, Gram-positive): Inactive

CCCCCCCCC1CC1CCCCCCCC(=O)O (stereo not drawn) [Compound 7, dihydrosterculic acid]
FRAP ([1]; FeSO4 standard curve): 230.06 µM | FRAP ([1]; µM FeSO4/µg sample): 2.88 ± 0.03 µM/µg | MIC (S. marcescent): Inactive | MIC (MRSA HBP10; MRSA HBP10, Gram-positive): Inactive | MIC (MRSA POB2; MRSA POB2, Gram-positive): Inactive

CCCCCCCC/C=C/CCCCCCC(O)C(=O)OC (stereo not drawn) [Compound 8, methyl (9E)-2-hydroxy-9-octadecenoate]
MIC (S. marcescent): Inactive | MIC (MRSA HBP10; MRSA HBP10, Gram-positive): Inactive | MIC (MRSA POB2; MRSA POB2, Gram-positive): Inactive

CNC(C)C1CCC(N)C(OC2C(N)CC(N)C(OC3OCC(C)(O)C(NC)C3O)C2O)O1 (stereo not drawn) [Gentamicin, gentamicin, reference compound]
MIC (E. coli): 0.25 µg/mL (≈ 0.523 µM) | MIC (S. marcescent; [4]): 0.25 µg/mL (≈ 0.523 µM)

[H]/N=C(/NC)NCCC[C@H](N)C(=O)O [L-NMMA, L-N-Monomethyl Arginine citrate, reference compound]
IC50 ([2]; Mus musculus, RAW264.7, LPS 1 μg/mL, adjusted for cell viability, read-out: IC50, inhibition of LPS-induced NO production): 43.5 ± 1.8 µM

CN[C@H](CC(C)C)C(=O)N[C@H]1C(=O)N[C@@H](CC(N)=O)C(=O)N[C@H]2C(=O)N[C@H]3C(=O)N[C@H](C(=O)N[C@H](C(=O)O)c4cc(O)cc(O)c4-c4cc3ccc4O)[C@H](O)c3ccc(c(Cl)c3)Oc3cc2cc(c3O[C@@H]2O[C@H](CO)[C@@H](O)[C@H](O)[C@H]2O[C@H]2C[C@](C)(N)[C@H](O)[C@H](C)O2)Oc2ccc(cc2Cl)[C@H]1O [Vancomycin, vancomycin, reference compound]
MIC (MSSA LUU7; MSSA): 0.5 µg/mL (≈ 0.345 µM) | MIC (S. aureus 8325-4): 0.5 µg/mL (≈ 0.345 µM) | MIC (MRSA USA300): 0.5 µg/mL (≈ 0.345 µM) | MIC (S. aureus ONE9; ONE9): 0.5 µg/mL (≈ 0.345 µM) | MIC (MSSA R113; MSSA): 0.5 µg/mL (≈ 0.345 µM) | MIC (S. aureus CART817; CART817): 1 µg/mL (≈ 0.69 µM) | MIC (MRSA HBP10; Staphylococcus aureus, MRSA): 1 µg/mL (≈ 0.69 µM) | MIC (MRSA POB2; Staphylococcus aureus, MRSA): 0.5 µg/mL (≈ 0.345 µM) | MIC (S. aureus NEWMAN; NEWMAN): 0.5 µg/mL (≈ 0.345 µM)

N.N.[Cl][Pt][Cl] [cisplatin, Cisplatin, reference compound]
IC50 ([3]; read-out: IC50, cytotoxicity against A549 cells, 72 h exposure): 4.2 ± 0.3 µM
